Experimental data taken from patent US9522873B2, “Biphenyl derivative, pharmaceutically acceptable salt thereof, and methods for preventing or treating inflammatory diseases or autoimmune diseases” (Dongguk University Industry-Academic Cooperation Foundation, priority 2011, dated 2016).

How the values were obtained:
Format in all cases: in vivo
[1] = tested on: inflammation-related protein p65; experiment: TPA-induced ear edema mouse model: immunohistochemical staining of ear tissue for p65; settings: ear tissue of TPA-treated ICR mice, 24 hours after TPA, FIG. 7
Experimental: (§1) The following experiment was performed using tetradecanoyl phorbol acetate (TPA)-induced ear edema (inflammation) mouse models to analyze the anti-inflammatory activity of the novel biphenyl compounds obtained in Example 1. The TPA-induced ear edema mouse model has been widely used to investigate the mechanism of the inflammatory response and the effects of inhibitory substances (Agents and Actions. 1989. 26; 335-341). More specifically, 6-week-old ICR male mice were prepared, and each 20 μl of a TPA solution dissolved in acetone at a concentration of 125 μg/ml was applied to the left ears of mice. After 1 hour of the TPA application, each 20 μl of the solvent or compound 6 (0.3% and 1%) prepared in Example 1 and dissolved in the solvent was applied to the left ears of mice and reapplied after 6 hours of the TPA application. Indomethacin, an anti-inflammatory agent, was applied to the positive control group. Each predetermined area of the left ears of mice was harvested after 24 hours of the TPA application. The weight of each of the left ears of mice was measured, and H&E staining and immunohistochemical staining were performed on ear tissues.

[2] = tested on: TPA-induced ear edema (inflammation) mouse models; experiment: TPA-induced ear edema (inflammation) mouse model: ear weight and H&E staining; settings: ICR male mice, 20 μl of 0.3% and 1% applied to left ear 1 hour and 6 hours after TPA, harvested after 24 hours
Experimental: as §1

[3] = tested on: anti-inflammatory protein IkB (inhibitory kappa B); experiment: TPA-induced ear edema mouse model: immunohistochemical staining of ear tissue for IkB; settings: ear tissue of TPA-treated ICR mice, 24 hours after TPA, FIG. 8
Experimental: as §1

CCCCC(=O)N(Cc1ccc(-c2ccccc2C(=O)N2CCN(C)CC2)cc1)c1ccccc1 [compound 4, N-[(2′-(4-methylpiperazine-1-carbonyl)biphenyl-4-yl)methyl]-N-phenylpentanamide] was tested, and the “expression of inflammation-related protein p65” value [1] was “decreased”, the “inflammation and edema induced by TPA (ear weight)” value ([2]; FIG. 5) was “inhibited” and the “ear tissues thickened by the edema induced by TPA (H&E staining)” value ([2]; FIG. 6) was “recovered to normal level”. For the same compound, the “expression of anti-inflammatory protein IkB (inhibitory kappa B)” value [3] was “increased”.
